Measured values: patent US11028212B2, “Chloroprene graft copolymer latex, method for producing same, bonding agent and adhesive” (SHOWA DENKO K.K., priority 2016, dated 2021)

Type: physicochemical
Conditions: polymerization initiator
Description: The octanol/water partition coefficient is also expressed as LogPow and is an index representing hydrophobicity (solubility in lipid) of a chemical substance. The measurement method of the octanol/water partition coefficient is basically in accordance with OECD Test Guideline (“C (81) 30 appendix 1” determined by OECD Board of Directors) 107 or Japanese Industrial Standards Z7260-107 (2000), “Determination of partition coefficient (1-octanol/water)-Shake flask method”.

## CC(C)(C)OO [t-butyl hydroperoxide]
  octanol/water partition coefficient: −1.3
